Laboratory results from US20180273538A1, “PYRROLO[2,3-d]PYRIMIDINE DERIVATIVES, A PROCESS FOR THEIR PREPARATION AND PHARMACEUTICAL COMPOSITIONS CONTAINING THEM” (LES LABORATOIRES SERVIER, priority 2015, published 2018).

What was measured:
[1] = biological target: T1, DYRK1A (Homo sapiens, UniProt Q13627); test: Kinase TR-FRET assay, DYRK1A; type: biochemical
T1 construct: full-length human kinases from Carna Biosciences; purchased Carna Biosciences 04-130

[2] = biological target: T2, His-TEV-DYRK1A Kinase domain (aa127-485) (Homo sapiens, UniProt Q13627); test: Kinase ADP assay (ADP Hunter Plus); type: biochemical
T2 construct: His-TEV-DYRK1A Kinase domain (aa127-485); His (N); TEV cleavage site (N)

[3] = biological target: T3, DYRK1B (Homo sapiens, UniProt Q9Y463); test: Kinase TR-FRET assay, DYRK1B; type: biochemical
T3 construct: full-length human kinases from Carna Biosciences; purchased Carna Biosciences 04-131
T3 sequence (Q9Y463 whole entry): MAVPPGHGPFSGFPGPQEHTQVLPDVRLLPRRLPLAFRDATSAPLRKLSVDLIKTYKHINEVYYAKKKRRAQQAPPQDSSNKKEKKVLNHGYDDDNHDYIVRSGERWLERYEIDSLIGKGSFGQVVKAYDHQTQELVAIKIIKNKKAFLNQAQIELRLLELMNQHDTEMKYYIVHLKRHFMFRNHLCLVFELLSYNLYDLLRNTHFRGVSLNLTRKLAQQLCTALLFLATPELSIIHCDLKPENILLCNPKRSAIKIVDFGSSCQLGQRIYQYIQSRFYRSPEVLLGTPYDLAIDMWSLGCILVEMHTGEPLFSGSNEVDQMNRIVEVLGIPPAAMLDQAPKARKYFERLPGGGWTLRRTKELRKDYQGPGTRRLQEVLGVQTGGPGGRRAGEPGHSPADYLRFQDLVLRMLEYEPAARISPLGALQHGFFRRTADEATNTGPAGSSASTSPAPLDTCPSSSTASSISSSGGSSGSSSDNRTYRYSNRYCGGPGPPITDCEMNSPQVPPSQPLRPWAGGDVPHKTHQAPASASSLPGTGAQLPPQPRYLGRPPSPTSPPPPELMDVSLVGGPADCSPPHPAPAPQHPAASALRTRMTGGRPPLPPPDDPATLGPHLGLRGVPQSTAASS

[4] = biological target: T4, phospho-Ser520-DYRK1A (Homo sapiens, UniProt Q13627); test: Cellular DYRK1A autophosphorylation assay in U2-OS cells; type: cell-based; settings: 5 hours exposure, read-out: IC50 (μM) P-Ser520-Dyrk1A-Cell assay
T4 construct: full-length, wild-type human DYRK1A (NM_001396) with an HA tag; expressed in transfected cells; host or cells: human U2-OS osteosarcoma cells, pcDNA3.1 plasmid

[5] = biological target: T5, CLK1 (Homo sapiens, UniProt P49759); test: Kinase TR-FRET assay, CLK1; type: biochemical
T5 construct: full-length human kinases from Carna Biosciences; purchased Carna Biosciences 04-126
T5 sequence (P49759 1-526 isoform P49759-3): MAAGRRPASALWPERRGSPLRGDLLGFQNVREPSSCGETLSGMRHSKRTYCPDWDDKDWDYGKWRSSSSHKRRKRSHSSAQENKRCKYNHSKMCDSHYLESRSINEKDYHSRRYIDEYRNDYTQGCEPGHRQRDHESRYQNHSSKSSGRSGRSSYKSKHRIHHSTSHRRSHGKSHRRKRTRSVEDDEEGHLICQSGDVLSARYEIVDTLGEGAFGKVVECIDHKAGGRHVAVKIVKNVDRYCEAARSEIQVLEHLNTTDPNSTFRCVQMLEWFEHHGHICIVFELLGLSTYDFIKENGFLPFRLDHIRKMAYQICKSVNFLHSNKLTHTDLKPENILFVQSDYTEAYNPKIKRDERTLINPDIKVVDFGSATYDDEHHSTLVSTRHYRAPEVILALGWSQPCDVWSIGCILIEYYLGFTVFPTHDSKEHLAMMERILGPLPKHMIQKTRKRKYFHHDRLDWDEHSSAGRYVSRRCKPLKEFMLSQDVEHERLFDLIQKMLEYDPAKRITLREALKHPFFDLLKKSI

SMILES	IC50 [1]	IC50 [2]	IC50 [3]	IC50 [4]	IC50 [5]
Cc1cc(-c2c[nH]c3nc(C)nc(OCc4ccsc4)c23)ccn1 [Example 5, 2-methyl-5-(2-methylpyridin-4-yl)-4-(thiophen-3-ylmethoxy)-7H-pyrrolo[2,3-d]pyrimidine]	0.0094 µM	0.015 µM	0.0005 µM		
Cc1nc(OCc2ccccc2)c2c(-c3ccncc3)c[nH]c2n1 [Example 11, 4-(benzyloxy)-2-methyl-5-(pyridin-4-yl)-7H-pyrrolo[2,3-d]pyrimidine]	0.0173 µM	0.012 µM	0.0132 µM		
Cc1nc(OCC2CCCC2)c2c(-c3ccncc3)c[nH]c2n1 [Example 15, 4-(cyclopentylmethoxy)-2-methyl-5-(pyridin-4-yl)-7H-pyrrolo[2,3-d]pyrimidine]	0.0355 µM	0.032 µM	0.0143 µM		
Cc1nc(OCc2ccc(C(C)C)cc2)c2c(-c3ccnc(N)c3)c[nH]c2n1 [Example 27, 4-{2-methyl-4-{(4-{propan-2-yl)benzyl]oxy}-7H-pyrrolo[2,3-d]pyrimidin-5-yl)pyridin-2-amine]	0.0444 µM	0.04 µM	0.0522 µM		
Cc1cc(-c2c[nH]c3nc(C)nc(NCc4ccsc4)c23)ccn1 [Example 45, 2-methyl-5-(2-methylpyridin-4-yl)-N-(thiophen-3-ylmethyl)-7H-pyrrolo[2,3-d]pyrimidin-4-amine]	0.2 µM	0.496 µM		0.686 µM	
Cc1nc(NCC2CCCCC2)c2c(-c3ccnc(N)c3)c[nH]c2n1 [Example 48, 5-(2-aminopyridin-4-yl)-N-(cyclohexylmethyl)-2-methyl-7H-pyrrolo[2,3-d]pyrimidin-4-amine]	0.043 µM	0.044 µM		0.208 µM	
Cc1nc(NCc2ccccc2F)c2c(-c3ccnc(N)c3)c[nH]c2n1 [Example 51, 5-(2-aminopyridin-4-yl)-N-(2-fluorobenzyl)-2-methyl-7H-pyrrolo[2,3-d]pyrimidin-4-amine]	0.0029 µM	0.013 µM		0.126 µM	
Cc1nc(NCc2ccccn2)c2c(-c3ccnc(N)c3)c[nH]c2n1 [Example 53, 5-(2-aminopyridin-4-yl)-2-methyl-N-(pyridin-2-ylmethyl)-7H-pyrrolo[2,3-d]pyrimidin-4-amine]	0.0233 µM	0.021 µM		0.238 µM	
Cc1nc(NCc2ccc(F)cc2)c2c(-c3ccnc(N)c3)c[nH]c2n1 [Example 54, 5-(2-aminopyridin-4-yl)-N-(4-fluorobenzyl)-2-methyl-7H-pyrrolo[2,3-d]pyrimidin-4-amine]	0.0129 µM	0.032 µM		0.511 µM	
Cc1nc(NCc2cc(C)on2)c2c(-c3ccnc(N)c3)c[nH]c2n1 [Example 59, 5-(2-aminopyridin-4-yl)-2-methyl-N-[(5-methyl-1,2-oxazol-3-yl)methyl]-7H-pyrrolo[2,3-d]pyrimidin-4-amine]	0.0102 µM	0.042 µM	0.0191 µM	0.259 µM	
Cc1nc(NCc2ncccc2C)c2c(-c3ccnc(N)c3)c[nH]c2n1 [Example 60, 5-(2-aminopyridin-4-yl)-2-methyl-N-[(3-methylpyridin-2-yl)methyl]-7H-pyrrolo[2,3-d]pyrimidin-4-amine]	0.003 µM	0.011 µM		0.0206 µM	
Cc1nc(NCc2ccc(F)cc2F)c2c(-c3ccnc(N)c3)c[nH]c2n1 [Example 63, 5-(2-aminopyridin-4-yl)-N-(2,4-difluorobenzyl)-2-methyl-7H-pyrrolo[2,3-d]pyrimidin-4-amine]	0.0107 µM	0.014 µM		0.0408 µM	
Cc1nc(NCc2ccccc2C(F)(F)F)c2c(-c3ccnc(N)c3)c[nH]c2n1 [Example 64, 5-(2-aminopyridin-4-yl)-2-methyl-N-[2-(trifluoromethyl)benzyl]-7H-pyrrolo[2,3-d]pyrimidin-4-amine]	0.0059 µM	0.015 µM	0.0093 µM	0.234 µM	
Cc1nc(NCC2CC2)c2c(-c3ccnc(N)c3)c[nH]c2n1 [Example 65, 5-(2-aminopyridin-4-yl)-N-(cyclopropymethyl)-2-methyl-7H-pyrrolo[2,3-d]pyrimidin-4-amine]	0.0709 µM	0.069 µM		0.898 µM	
Cc1nc(NCc2ncccc2F)c2c(-c3ccnc(N)c3)c[nH]c2n1 [Example 71, 5-(2-aminopyridin-4-yl)-N-[(3-fluoropyridin-2-yl)methyl]-2-methyl-7H-pyrrolo[2,3-d]pyrimidin-4-amine]			0.0074 µM		0.0237 µM
Cc1nc(NCc2cccc(F)c2F)c2c(-c3ccnc(N)c3)c[nH]c2n1 [Example 74, 5-(2-aminopyridin-4-yl)-N-(2,3-difluorobenzyl)-2-methyl-7H-pyrrolo[2,3-d]pyrimidin-4-amine]	0.0012 µM	0.014 µM		0.111 µM	0.0184 µM

SMILES	IC50 [1]	IC50 [2]	IC50 [3]	IC50 [4]	IC50 [5]
Cc1nc(N[C@@H]2CCc3ccccc32)c2c(-c3ccnc(N)c3)c[nH]c2n1 [Example 76, 5-(2-aminopyridin-4-yl)-N-[(1R)-2,3-dihydro-1H-inden-1-yl]-2-methyl-7H-pyrrolo[2,3-d]pyrimidin-4-amine]	0.0063 µM	0.01 µM	0.0005 µM	0.0672 µM	
CCOc1ccccc1CNc1nc(C)nc2[nH]cc(-c3ccnc(N)c3)c12 [Example 79, 5-(2-aminopyridin-4-yl)-N-(2-ethoxybenzyl)-2-methyl-7H-pyrrolo[2,3-d]pyrimidin-4-amine]	0.0021 µM	0.008 µM	0.008 µM	0.105 µM	
COc1cccc(C(F)(F)F)c1CNc1nc(C)nc2[nH]cc(-c3ccnc(N)c3)c12 [Example 80, 5-(2-aminopyridin-4-yl)-N-[2-methoxy-6-(trifluoromethyl)benzyl]-2-methyl-7H-pyrrolo[2,3-d]pyrimidin-4-amine]	0.0059 µM	0.004 µM	0.0106 µM	0.0156 µM	
Cc1nc(NCc2cccc(Cl)c2Cl)c2c(-c3ccnc(N)c3)c[nH]c2n1 [Example 81, 5-(2-aminopyridin-4-yl)-N-(2,3-dichlorbenzyl)-2-methyl-7H-pyrrolo[2,3-d]pyrimidin-4-amine]	0.0085 µM	0.014 µM	0.0141 µM	0.166 µM	
Cc1nc(NC(C)c2c(F)cccc2F)c2c(-c3ccnc(N)c3)c[nH]c2n1 (stereo not shown) [Example 82, 5-(2-aminopyridin-4-yl)-N-[1-(2,6-difluorophenyl)ethyl]-2-methyl-7H-pyrrolo[2,3-d]pyrimidin-4-amine]	0.001 µM	0.045 µM	0.0199 µM		
Cc1nc(N[C@@H]2C[C@H]3CC[C@@H]2C3)c2c(-c3ccnc(N)c3)c[nH]c2n1 [Example 83, 5-(2-aminopyridin-4-yl)-N-[(1R,2R,4S)-bicyclo[2.2.1]hept-2-yl]-2-methyl-7H-pyrrolo[2,3-d]pyrimidin-4-amine]	0.0006 µM	0.081 µM	0.0404 µM		
Cc1nc(NCc2c(C)noc2C)c2c(-c3ccnc(N)c3)c[nH]c2n1 [Example 95, 5-(2-aminopyridin-4-yl)-N-[(3,5-dimethyl-1,2-oxazol-4-yl)methyl]-2-methyl-7H-pyrrolo[2,3-d]pyrimidin-4-amine]	0.0979 µM	0.066 µM		0.534 µM	
COc1cccnc1CNc1nc(C)nc2[nH]cc(-c3ccnc(N)c3)c12 [Example 98, 5-(2-aminopyridin-4-yl)-N-[(3-methoxypyridin-2-yl)methyl]-2-methyl-7H-pyrrolo[2,3-d]pyrimidin-4-amine]		0.022 µM		0.192 µM	0.0241 µM
COc1ccccc1[C@H](C)Nc1nc(C)nc2[nH]cc(-c3ccnc(N)c3)c12 [Example 106, 5-(2-aminopyridin-4-yl)-N-[(1S)-1-(2-methoxyphenyl)ethyl]-2-methyl-7H-pyrrolo[2,3-d]pyrimidin-4-amine]		0.018 µM		0.177 µM	0.0171 µM
Cc1nc(N2CCc3ccccc3C2)c2c(-c3cc(N)nc(N)c3)c[nH]c2n1 [Example 114, 4-[4-(3,4-dihydroisoquinolin-2(1H)-yl)-2-methyl-7H-pyrrolo[2,3-d]pyrimidin-5-yl]pyridine-2,6-diamine]		0.009 µM		0.006 µM	0.0162 µM
COc1cccc(F)c1CNc1nc(C)nc2[nH]cc(-c3cc(N)nc(N)c3)c12 [Example 116, 4-{4-[(2-fluoro-6-methoxybenzyl)amino]-2-methyl-7H-pyrrolo[2,3-d]pyrimidin-5-yl}pyridine-2,6-diamine]		0.005 µM		0.0009 µM	0.0136 µM
Cc1nc(NCC(F)(F)c2ccccc2)c2c(-c3ccnc(N)c3)c[nH]c2n1 [Example 123, 5-(2-aminopyridin-4-yl)-N-(2,2-difluoro-2-phenylethyl)-2-methyl-7H-pyrrolo[2,3-d]pyrimidin-4-amine]		0.071 µM			0.0615 µM
Cc1nc(-c2ccccc2)c2c(-c3ccnc(N)c3)c[nH]c2n1 [Example 163]		0.026 µM		0.197 µM	0.104 µM
Cc1nc(COc2c(F)cccc2F)c2c(-c3ccnc(N)c3)c[nH]c2n1 [Example 166]		0.025 µM		0.118 µM	0.248 µM
COc1cccc(-c2nc(C)nc3[nH]cc(-c4ccnc(N)c4)c23)c1 [Example 167]		0.015 µM		0.0444 µM	0.042 µM
Cc1nc(-c2ccc3c(c2)OCO3)c2c(-c3ccnc(N)c3)c[nH]c2n1 [Example 179]			0.0115 µM		0.0425 µM
